Measurements taken from publication PMC11900932 (International Journal of Molecular Sciences, 2025).
Structures can show the parent of a compound that is named as a salt. Where two headings read alike, the source gives them in different places.

Assays:
[1] = target: T1, SARS-CoV-2 3CL^pro (Severe acute respiratory syndrome coronavirus 2, UniProt P0DTD1); details: cited from earlier work
[2] = target: T1, SARS-CoV-2 3CL^pro; experiment: biochemical
[3] = target: T1, SARS-CoV-2 3CL^pro; details: cited from earlier work; remark: listed apart in the source
[4] = target: SARS-CoV 3CL^pro (Severe acute respiratory syndrome coronavirus, UniProt P0C6X7); experiment: biochemical
[5] = target: MERS-CoV 3CL^pro (Middle East respiratory syndrome-related coronavirus, UniProt K9N7C7); experiment: biochemical
MERS-CoV 3CL^pro, sequence (K9N7C7 3248-3553 limits assumed): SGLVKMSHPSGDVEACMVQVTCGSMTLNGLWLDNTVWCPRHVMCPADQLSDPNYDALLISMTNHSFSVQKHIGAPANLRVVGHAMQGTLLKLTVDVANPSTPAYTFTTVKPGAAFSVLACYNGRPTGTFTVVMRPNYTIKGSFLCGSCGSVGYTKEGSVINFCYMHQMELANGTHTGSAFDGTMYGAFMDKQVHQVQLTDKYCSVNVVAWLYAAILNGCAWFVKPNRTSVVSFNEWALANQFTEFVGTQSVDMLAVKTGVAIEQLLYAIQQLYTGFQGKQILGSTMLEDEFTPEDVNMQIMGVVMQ

[6] = tested on: SARS-CoV-2-S pseudovirus; experiment: microbe, parasite or virus in culture; format: cell-based; details: for IC50: Pseudovirus, read-out: IC50, pseudovirus activity inhibition
[7] = target: T2, CTSB (Homo sapiens, UniProt P07858); experiment: Host protease selectivity test, Cathepsin B; format: biochemical; details: 5 and 50 μM
T2 construct: purchased SinoBiological, Beijing, China
Procedure: Target selectivity tests toward host proteases were conducted based on our previous method. Cathepsin B (CTSB) (SinoBiological, Beijing, China) at a final concentration of 100 nM was prepared in buffer with 20 mM sodium acetate, 1 mM EDTA, and 2 mM DTT (pH 5.5) and incubated for 30 min at 30 °C. Next, the working solution of CTSB was diluted into 500 pM with the reaction buffer (100 mM MES pH 6.0, 1 mM EDTA, 2 mM DTT, and 0.01% Tween-20) and kept for 30 min. Then, the FRET substrate Z-Phe-Arg-AMC (NJPeptide, Nanjing, China) at 5 μM was added to activate the enzymatic reaction. The fluorescence signals were measured using a Cytation 5 plate reader (BioTek, Winooski, VT, USA) at 360 nm (excitation)/460 nm (emission) for 20 min.

[8] = target: T3, CTSL (Homo sapiens, UniProt P07711); experiment: Host protease selectivity test, Cathepsin L; format: biochemical; details: 5 and 50 μM
T3 construct: purchased SinoBiological, Beijing, China
T3 sequence (P07711 114-333): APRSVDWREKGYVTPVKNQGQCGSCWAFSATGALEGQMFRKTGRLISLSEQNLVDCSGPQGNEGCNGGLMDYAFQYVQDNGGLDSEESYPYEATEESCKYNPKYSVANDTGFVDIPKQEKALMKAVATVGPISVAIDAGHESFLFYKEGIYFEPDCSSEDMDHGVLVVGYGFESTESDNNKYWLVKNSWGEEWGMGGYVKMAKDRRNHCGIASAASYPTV
Procedure: Cathepsin L (CTSL) (SinoBiological, Beijing, China) at a final concentration of 100 nM in buffer (20 mM sodium acetate, 1 mM EDTA, and 5 mM DTT, pH 5.5) was activated by incubation at 30 °C. Then, the working solution of CTSL was diluted into 300 pM with the reaction buffer and incubated for 30 min. The addition of 5 μM FRET substrate Z-Phe-Arg-AMC (NJPeptide, Nanjing, China) initiated the reaction. The fluorescence signals at 360 nm (excitation)/460 nm (emission) were measured for 20 min with the Cytation 5 plate reader (BioTek, Winooski, VT, USA).

[9] = target: T4, CTRC (Homo sapiens, UniProt Q99895); experiment: Host protease selectivity test, Chymotrypsin; format: biochemical; details: 5 and 50 μM
T4 construct: purchased Novoprotein, Suzhou, China
T4 sequence (Q99895 30-268): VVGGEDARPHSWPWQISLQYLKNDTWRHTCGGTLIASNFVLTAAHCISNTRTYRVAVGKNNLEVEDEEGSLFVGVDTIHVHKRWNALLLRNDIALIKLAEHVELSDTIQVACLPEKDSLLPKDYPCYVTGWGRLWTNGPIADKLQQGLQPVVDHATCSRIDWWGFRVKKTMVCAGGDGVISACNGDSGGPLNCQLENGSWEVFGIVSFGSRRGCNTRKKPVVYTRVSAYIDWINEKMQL
Procedure: Chymotrypsin (CTRC) (Novoprotein, Suzhou, China) at a final concentration of 5 μg/mL was incubated in a buffer solution containing 50 mM Tris, 10 mM CaCl2, and 150 mM NaCl at pH 7.5 for a period of 30 min. Subsequently, trypsin was added to the mixture at the same concentration (5 μg/mL) and incubated for an additional 60 min at 37 °C. Following this, the reaction was initiated by adding 100 µM of the Succinyl-Ala-Ala-Pro-Phe-p-nitroanilide substrate (NJPeptide, Nanjing, China), and the mixture was incubated for another 60 min at 37 °C. Finally, the activity of CTRC was quantified by measuring the absorbance at 405 nm using a Cytation 5 plate reader (BioTek, Winooski, VT, USA).

[10] = target: T5, TMPRSS2 (Homo sapiens, UniProt O15393); experiment: Host protease selectivity test, TMPRSS2; format: biochemical
T5 construct: purchased MedChemExpress, Shanghai, China
T5 sequence (O15393 whole entry): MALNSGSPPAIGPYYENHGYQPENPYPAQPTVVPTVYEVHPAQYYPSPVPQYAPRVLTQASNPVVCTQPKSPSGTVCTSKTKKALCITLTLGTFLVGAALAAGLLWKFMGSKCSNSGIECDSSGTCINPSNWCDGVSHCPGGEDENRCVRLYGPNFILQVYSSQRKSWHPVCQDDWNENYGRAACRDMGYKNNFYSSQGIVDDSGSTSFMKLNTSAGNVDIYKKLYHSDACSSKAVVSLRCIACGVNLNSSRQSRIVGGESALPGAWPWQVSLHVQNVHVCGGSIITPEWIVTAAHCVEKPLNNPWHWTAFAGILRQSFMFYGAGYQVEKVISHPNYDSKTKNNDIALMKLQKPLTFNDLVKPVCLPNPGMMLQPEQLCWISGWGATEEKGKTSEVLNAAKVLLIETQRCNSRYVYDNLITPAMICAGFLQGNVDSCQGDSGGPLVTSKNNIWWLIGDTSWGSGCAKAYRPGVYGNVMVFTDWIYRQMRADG
Procedure: TMPRSS2 protease at the concentration of 5 nM (MedChemExpress, Shanghai, China) was incubated with compounds in the reaction buffer (50 mM Tris-HCl, 1 mM CaCl2, 0.1% Tween 20, pH 8.0) for 1 h at 37 °C. Then, 45 μM substrate Boc-GIn-Ala-Arg-AMC (NJPeptide, Nanjing, China) was added to initiate the reaction. Fluorescence intensity was detected using a Cytation 5 plate reader at 380 nm (excitation)/460 nm (emission) for 1.5 h.

[11] = in vitro; details: human
[12] = Cell viability assay (CCK-8) on Vero-E6 cells; details: African green monkey
[13] = target: T1, SARS-CoV-2 3CL^pro; format: biochemical
[14] = tested on: SARS-CoV-2-S pseudovirus Omicron; experiment: microbe, parasite or virus in culture; format: cell-based
[15] = tested on: SARS-CoV-2-S pseudovirus Delta; experiment: microbe, parasite or virus in culture; format: cell-based
[16] = tested on: SARS-CoV-2-S pseudovirus Gamma; experiment: microbe, parasite or virus in culture; format: cell-based
[17] = target: SARS-CoV-2 S-RBD/ACE2 interaction (Severe acute respiratory syndrome coronavirus 2, UniProt P0DTC2); format: cell-based
[18] = target: human ACE2 (Homo sapiens, UniProt Q9BYF1); experiment: SPR binding to immobilized ACE2
human ACE2, sequence (Q9BYF1 18-805): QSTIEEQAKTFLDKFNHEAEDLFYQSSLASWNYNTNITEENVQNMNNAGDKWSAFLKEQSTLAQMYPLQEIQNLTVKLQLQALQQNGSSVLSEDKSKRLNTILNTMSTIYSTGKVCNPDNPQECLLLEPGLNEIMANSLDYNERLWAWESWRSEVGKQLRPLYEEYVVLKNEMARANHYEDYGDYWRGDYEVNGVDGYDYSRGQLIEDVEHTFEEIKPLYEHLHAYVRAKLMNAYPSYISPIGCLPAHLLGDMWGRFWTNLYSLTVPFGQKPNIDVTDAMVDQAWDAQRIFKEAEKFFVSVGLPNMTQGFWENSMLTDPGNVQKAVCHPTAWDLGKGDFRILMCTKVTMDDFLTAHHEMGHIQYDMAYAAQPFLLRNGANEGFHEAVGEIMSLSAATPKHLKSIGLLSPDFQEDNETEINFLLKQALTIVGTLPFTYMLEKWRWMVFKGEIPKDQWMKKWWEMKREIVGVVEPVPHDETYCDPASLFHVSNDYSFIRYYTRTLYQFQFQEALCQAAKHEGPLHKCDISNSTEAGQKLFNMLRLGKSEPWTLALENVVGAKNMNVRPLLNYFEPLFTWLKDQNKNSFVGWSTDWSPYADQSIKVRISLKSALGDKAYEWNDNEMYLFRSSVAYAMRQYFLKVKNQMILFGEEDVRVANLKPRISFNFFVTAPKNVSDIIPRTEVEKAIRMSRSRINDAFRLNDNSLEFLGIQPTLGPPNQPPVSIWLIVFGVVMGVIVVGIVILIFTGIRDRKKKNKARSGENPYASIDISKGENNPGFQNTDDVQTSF
Procedure: ACE2 and S-RBD were separately immobilized onto a CM5 chip via amine coupling in sodium acetate buffer (pH 4.0 for ACE2 and pH 5.5 for S-RBD) at a flow rate of 10 μL/min. After the chip surface was activated with NHS and EDC, ACE2 and S-RBD were injected at concentrations of 20 μg/mL and 30 μg/mL, respectively, and the surface was blocked using ethanolamine. […] All measurements were performed in PBS buffer (0.05% Tween-20, 5% DMSO, pH 7.4) at 25 °C, with corrections applied to address refractive index shifts and data drift. The binding affinities were quantified by fitting the interaction data to a Langmuir 1:1 binding model using Biacore Evaluation software.

[19] = target: SARS-CoV-2 S-RBD (Severe acute respiratory syndrome coronavirus 2, UniProt P0DTC2); experiment: biochemical; format: binding
[20] = target: T1, SARS-CoV-2 3CL^pro
[21] = parameters: method as in doi:10.1177/009286150103500134; details: cited from earlier work

For `O=c1cc(-c2ccc(O)c(O)c2)oc2cc(O)cc(O)c12` [luteolin], the IC50 [1] is given as 74.9 µM.

For `C[C@@H]1O[C@@H](OC[C@H]2O[C@@H](Oc3c(-c4cc(O)c(O)c(O)c4)oc4cc(O)cc(O)c4c3=O)[C@H](O)[C@@H](O)[C@@H]2O)[C@H](O)[C@H](O)[C@H]1O` [Myricetin-3-O-rutinoside], the IC50 [2] was 0.85 µM.

For `C/C=C1/[C@H](O[C@@H]2O[C@H](CO)[C@@H](O)[C@H](O)[C@H]2O)OC=C(C(=O)OC)[C@H]1CC(=O)OCCc1ccc(O)c(O)c1` [Oleuropein], the IC50 [3] is listed as 3.5 µM.

In the case of `O=C(/C=C/c1ccc(O)cc1)c1ccc(O)cc1O` [Isoliquiritigenin], the IC50 [2] is reported as 73.9 µM.

`Oc1cc(O)c2c(c1)O[C@H](c1ccc(O)c(O)c1)[C@H](O)C2` [Epicatechin] gave an IC50 [2] of 3.3 µM.

In the case of `NC(CO)C(=O)NNCc1ccc(O)c(O)c1O` (centres unmarked) [Benserazide hydrochloride], the IC50 [4] is reported as 3.04 ± 0.4 µM, the IC50 [5] is reported as 8.81 ± 0.34 µM and the “inhibition of pseudovirus entry into host cells” value [6] is reported as “lacked the capacity to inhibit pseudovirus entry into host cells”. For the same compound, the IC50 [6] was > 200 µM, the “inhibition of CTSB” value [7] was “neither compound significantly inhibited” and the “inhibition of CTSL” value [8] was “neither compound significantly inhibited”. For the same compound, the “inhibitory activity against CTRC” value [9] was “did not”, the “inhibition of TMPRSS2” value [10] was “neither compound significantly inhibited” and the CC50 [11] was > 200 µM. The CC50 at 24 h [12] was > 100 µM.

In the case of `COC(=O)[C@@H](Cc1ccc(O)c(O)c1)OC(=O)/C=C/c1ccc(O)c(O)c1` [Methyl rosmarinate], the IC50 [3] is given as 2.5 µM.

For `O=C(c1cc(O)c(O)c(O)c1)c1ccc(O)c(O)c1O` [Exifone], the inhibition at 5 µM ([2]; read-out: inhibition of SARS-CoV-2 3CLpro activity) was > 50%, the type of inhibition [13] was “non-competitive inhibition with an allosteric mechanism” and the IC50 [4] was 3.36 ± 0.08 µM. The IC50 [5] was 13.9 ± 0.38 µM, the IC50 [6] was 76.5 ± 32.6 µM and the IC50 [14] was 55.1 ± 6.15 µM. The IC50 [15] was 150 ± 5.06 µM, the IC50 [16] was 159 ± 4.95 µM and the “S-RBD binding signal on Vero-E6 cells” value [17] was “marked reduction in the S-RBD binding signal”. It also gave a Kd [18] of 1.93 µM, a kd ([18]; SPR, immobilized ACE2) of 0.00045 s⁻¹ and a Kd [19] of 0.818 µM. The “inhibition of CTSB” value [7] was “neither compound significantly inhibited”, the “inhibition of CTSL” value [8] was “neither compound significantly inhibited” and the “inhibitory activity against CTRC” value [9] was “significant inhibitory activity”. For the same compound, the “inhibition of TMPRSS2” value [10] was “neither compound significantly inhibited”, the TDI effect [20] was “did not exhibit a significant TDI effect” and the “reason for withdrawal from the market” value [21] was “hepatotoxicity”. For the same compound, the CC50 [11] was > 200 µM and the CC50 at 24 h ([12]; Vero-E6 cells) was > 100 µM.

Work on `COc1cc(-c2oc3cc(O)cc(O)c3c(=O)c2O[C@@H]2O[C@H](CO[C@@H]3O[C@@H](C)[C@H](O)[C@@H](O)[C@H]3O)[C@@H](O)[C@H](O)[C@H]2O)cc(O)c1O` [Laricitrin 3-rutinoside] yielded an IC50 [2] of 3.82 µM.

In the case of `O=c1cc(-c2ccc(O)cc2)oc2cc(O)cc(O)c12` [Apigenin], the IC50 [1] is given as 84.9 µM.
